Results from ChEMBL document CHEMBL4177690, “(E)-3-(3,4,5-Trimethoxyphenyl)-1-(pyridin-4-yl)prop-2-en-1-one, a heterocyclic chalcone is a potent and selective CYP1A1 inhibitor and cancer chemopreventive agent” (Bioorg Med Chem Lett, 2017).

What was measured:
Homo sapiens [1] = species on record: Homo sapiens; assay: Selectivity ratio of IC50 for human CYP1A2 expressed in yeast microsomal membranes to IC50 for human CYP1A1 expressed in yeast microsomal membranes; assay type: cell membranes
Cytochrome P450 2C9 = Cytochrome P450 2C9 (Homo sapiens, UniProt P11712); assay: Inhibition of human CYP2C9 expressed in yeast microsomal membranes using 3-cyano-7-ethoxycoumarin as substrate measured after 10 mins by fluorescence assay; assay type: ADME, cell membranes, Microsomal Membrane
Cytochrome P450 3A4 = Cytochrome P450 3A4 (Homo sapiens, UniProt P08684); assay: Inhibition of recombinant human CYP3A4 expressed in HEK293 cells using dibenzylfluorescein as substrate pretreated for 30 mins followed by substrate addition measured for 60 mins by fluorescence assay; assay type: ADME
Cytochrome P450 1A2 [2] = biological target: T1, Cytochrome P450 1A2 (Homo sapiens, UniProt P05177); assay: Inhibition of human CYP1A2 expressed in yeast cells; assay type: ADME, cell-based
T1 sequence (P05177 whole entry): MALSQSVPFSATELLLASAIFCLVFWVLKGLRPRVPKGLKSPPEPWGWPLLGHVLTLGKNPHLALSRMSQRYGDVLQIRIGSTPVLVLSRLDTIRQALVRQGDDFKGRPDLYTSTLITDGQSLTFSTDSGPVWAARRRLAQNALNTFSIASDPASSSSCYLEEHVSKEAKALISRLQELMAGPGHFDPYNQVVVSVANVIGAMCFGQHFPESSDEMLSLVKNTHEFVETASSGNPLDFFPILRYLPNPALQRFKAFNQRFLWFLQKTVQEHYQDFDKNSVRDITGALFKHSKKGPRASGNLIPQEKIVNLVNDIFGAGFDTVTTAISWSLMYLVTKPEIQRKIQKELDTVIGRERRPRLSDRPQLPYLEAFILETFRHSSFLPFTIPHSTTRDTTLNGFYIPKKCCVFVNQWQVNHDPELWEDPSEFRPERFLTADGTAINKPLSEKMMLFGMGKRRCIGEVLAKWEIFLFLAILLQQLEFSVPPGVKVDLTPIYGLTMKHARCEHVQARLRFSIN

Homo sapiens [3] = species on record: Homo sapiens; assay: Selectivity ratio of IC50 for recombinant human CYP3A4 to IC50 for recombinant human CYP1A1
Cytochrome P450 2C19 [4] = biological target: T2, Cytochrome P450 2C19 (Homo sapiens, UniProt P33261); assay: Inhibition of human CYP2C19 expressed in yeast microsomal membranes using 3-cyano-7-ethoxycoumarin as substrate measured after 10 mins by fluorescence assay; assay type: ADME, cell membranes, Microsomal Membrane
Homo sapiens [5] = species on record: Homo sapiens; assay: Selectivity ratio of IC50 for recombinant human CYP1A2 expressed in HEK293 cells to IC50 for recombinant human CYP1A1 expressed in HEK293 cells; assay type: cell-based
Cytochrome P450 1A1 = biological target: T3, Cytochrome P450 1A1 (Homo sapiens, UniProt P04798); assay: Time-dependent inhibition of recombinant human CYP1A1 expressed in HEK293 cells using 7-ethoxyresorufin as substrate
T3 sequence (P04798 whole entry): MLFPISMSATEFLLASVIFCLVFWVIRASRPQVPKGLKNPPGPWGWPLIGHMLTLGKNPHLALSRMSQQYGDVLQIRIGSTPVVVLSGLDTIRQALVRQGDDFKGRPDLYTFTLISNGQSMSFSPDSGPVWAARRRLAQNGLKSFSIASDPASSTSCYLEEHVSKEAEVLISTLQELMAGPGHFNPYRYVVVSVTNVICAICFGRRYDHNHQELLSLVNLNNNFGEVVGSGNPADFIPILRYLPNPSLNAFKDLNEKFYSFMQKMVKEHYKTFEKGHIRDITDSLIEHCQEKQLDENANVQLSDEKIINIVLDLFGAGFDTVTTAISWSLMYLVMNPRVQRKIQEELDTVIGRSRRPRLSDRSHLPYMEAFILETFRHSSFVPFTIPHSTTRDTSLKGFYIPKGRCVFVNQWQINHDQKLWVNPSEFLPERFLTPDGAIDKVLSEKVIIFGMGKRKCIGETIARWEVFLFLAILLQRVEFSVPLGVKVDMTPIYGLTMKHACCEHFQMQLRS

Cytochrome P450 2C8 = biological target: T4, Cytochrome P450 2C8 (Homo sapiens, UniProt P10632); assay: Inhibition of human CYP2C8 expressed in yeast cells; assay type: ADME, cell-based
T4 sequence (P10632 whole entry): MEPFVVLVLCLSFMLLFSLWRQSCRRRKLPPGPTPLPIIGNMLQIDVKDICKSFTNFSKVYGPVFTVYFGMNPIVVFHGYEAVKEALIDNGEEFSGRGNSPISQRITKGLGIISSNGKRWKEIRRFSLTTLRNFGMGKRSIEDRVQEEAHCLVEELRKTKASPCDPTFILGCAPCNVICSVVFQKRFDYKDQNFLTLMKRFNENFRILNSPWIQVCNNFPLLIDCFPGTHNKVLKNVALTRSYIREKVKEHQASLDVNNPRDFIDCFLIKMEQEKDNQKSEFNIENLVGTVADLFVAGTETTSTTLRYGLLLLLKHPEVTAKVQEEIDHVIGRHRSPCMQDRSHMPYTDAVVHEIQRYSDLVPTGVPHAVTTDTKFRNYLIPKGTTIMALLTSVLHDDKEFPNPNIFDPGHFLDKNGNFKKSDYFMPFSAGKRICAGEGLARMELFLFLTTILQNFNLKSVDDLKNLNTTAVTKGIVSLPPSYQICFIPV

Cytochrome P450 2E1 = Cytochrome P450 2E1 (Homo sapiens, UniProt P05181); assay: Inhibition of human CYP2E1 expressed in yeast cells; assay type: ADME, cell-based
Cytochrome P450 1A2 [6] = biological target: T1, Cytochrome P450 1A2; assay: Inhibition of recombinant human CYP1A2 expressed in HEK293 cells using 3-cyano-7-ethoxycoumarin as substrate pretreated for 30 mins followed by substrate addition measured for 60 mins by fluorescence assay; assay type: ADME
Homo sapiens [7] = species on record: Homo sapiens; assay: Selectivity ratio of IC50 for recombinant human CYP2C19 to IC50 for recombinant human CYP1A1
Cytochrome P450 2D6 = Cytochrome P450 2D6 (Homo sapiens, UniProt P10635); assay: Inhibition of human CYP2D6 expressed in yeast microsomal membranes using 7-ethoxy-methyloxy-3-cyanocoumarin as substrate measured after 10 mins by fluorescence assay; assay type: ADME, cell membranes, Microsomal Membrane
Cytochrome P450 2C19 [8] = biological target: T2, Cytochrome P450 2C19; assay: Inhibition of recombinant human CYP2C19 expressed in HEK293 cells using 3-cyano-7-ethoxycoumarin as substrate pretreated for 30 mins followed by substrate addition measured for 60 mins by fluorescence assay; assay type: ADME

T2 sequence (P33261 whole entry): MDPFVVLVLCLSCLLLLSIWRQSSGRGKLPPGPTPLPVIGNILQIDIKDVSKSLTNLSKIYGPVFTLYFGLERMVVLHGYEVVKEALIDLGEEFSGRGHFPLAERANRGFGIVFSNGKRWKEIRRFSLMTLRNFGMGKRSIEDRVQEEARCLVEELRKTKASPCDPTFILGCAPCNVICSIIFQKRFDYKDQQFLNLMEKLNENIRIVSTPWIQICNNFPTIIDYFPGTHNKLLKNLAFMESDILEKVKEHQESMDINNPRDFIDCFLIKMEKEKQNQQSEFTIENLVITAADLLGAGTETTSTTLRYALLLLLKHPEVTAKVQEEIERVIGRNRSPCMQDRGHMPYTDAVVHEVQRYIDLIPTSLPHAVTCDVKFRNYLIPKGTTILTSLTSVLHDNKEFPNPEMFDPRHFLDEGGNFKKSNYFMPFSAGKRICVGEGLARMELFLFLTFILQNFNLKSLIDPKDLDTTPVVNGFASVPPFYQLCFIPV
Chain of Cytochrome P450 3A4 (P08684 whole entry): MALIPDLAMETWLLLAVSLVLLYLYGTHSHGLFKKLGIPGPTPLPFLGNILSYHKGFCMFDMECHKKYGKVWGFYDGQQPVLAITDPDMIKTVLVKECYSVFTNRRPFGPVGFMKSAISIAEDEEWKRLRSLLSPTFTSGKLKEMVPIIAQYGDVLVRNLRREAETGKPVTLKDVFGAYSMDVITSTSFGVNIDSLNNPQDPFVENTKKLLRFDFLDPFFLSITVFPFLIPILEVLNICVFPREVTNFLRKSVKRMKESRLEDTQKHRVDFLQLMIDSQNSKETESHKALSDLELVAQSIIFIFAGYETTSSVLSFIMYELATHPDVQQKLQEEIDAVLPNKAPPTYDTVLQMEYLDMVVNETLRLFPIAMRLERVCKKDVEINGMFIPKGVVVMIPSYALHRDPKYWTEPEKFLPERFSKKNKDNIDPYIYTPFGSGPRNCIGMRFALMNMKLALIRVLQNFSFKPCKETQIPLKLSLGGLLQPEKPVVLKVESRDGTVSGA
Chain of Cytochrome P450 2D6 (P10635 whole entry): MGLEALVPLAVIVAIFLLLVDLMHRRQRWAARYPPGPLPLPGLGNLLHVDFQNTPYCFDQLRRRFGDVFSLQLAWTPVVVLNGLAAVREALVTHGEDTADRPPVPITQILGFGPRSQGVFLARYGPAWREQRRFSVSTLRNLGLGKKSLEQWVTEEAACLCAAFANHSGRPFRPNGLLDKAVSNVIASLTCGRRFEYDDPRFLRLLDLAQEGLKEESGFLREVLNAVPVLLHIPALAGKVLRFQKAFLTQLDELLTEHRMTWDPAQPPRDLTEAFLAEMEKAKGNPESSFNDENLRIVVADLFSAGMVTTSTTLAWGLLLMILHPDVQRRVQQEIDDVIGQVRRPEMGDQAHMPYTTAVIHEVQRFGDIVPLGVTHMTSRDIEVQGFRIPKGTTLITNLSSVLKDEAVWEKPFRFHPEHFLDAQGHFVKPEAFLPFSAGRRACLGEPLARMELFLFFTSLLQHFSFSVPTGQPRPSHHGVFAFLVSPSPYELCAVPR
Chain of Cytochrome P450 2E1 (P05181 whole entry): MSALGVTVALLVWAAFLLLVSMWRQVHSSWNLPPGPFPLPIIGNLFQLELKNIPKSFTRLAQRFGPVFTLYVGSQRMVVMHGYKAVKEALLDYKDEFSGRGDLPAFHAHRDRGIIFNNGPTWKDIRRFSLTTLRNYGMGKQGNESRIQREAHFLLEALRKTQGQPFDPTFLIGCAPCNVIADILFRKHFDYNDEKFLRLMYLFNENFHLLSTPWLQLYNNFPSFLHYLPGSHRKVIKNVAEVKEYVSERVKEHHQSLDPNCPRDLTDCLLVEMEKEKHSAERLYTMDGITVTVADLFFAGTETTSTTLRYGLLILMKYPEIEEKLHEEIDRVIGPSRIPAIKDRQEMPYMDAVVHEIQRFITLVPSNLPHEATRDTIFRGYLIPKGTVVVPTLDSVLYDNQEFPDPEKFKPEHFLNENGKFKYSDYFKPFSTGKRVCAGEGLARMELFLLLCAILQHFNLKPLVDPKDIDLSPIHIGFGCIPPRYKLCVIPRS
Chain of Cytochrome P450 2C9 (P11712 whole entry): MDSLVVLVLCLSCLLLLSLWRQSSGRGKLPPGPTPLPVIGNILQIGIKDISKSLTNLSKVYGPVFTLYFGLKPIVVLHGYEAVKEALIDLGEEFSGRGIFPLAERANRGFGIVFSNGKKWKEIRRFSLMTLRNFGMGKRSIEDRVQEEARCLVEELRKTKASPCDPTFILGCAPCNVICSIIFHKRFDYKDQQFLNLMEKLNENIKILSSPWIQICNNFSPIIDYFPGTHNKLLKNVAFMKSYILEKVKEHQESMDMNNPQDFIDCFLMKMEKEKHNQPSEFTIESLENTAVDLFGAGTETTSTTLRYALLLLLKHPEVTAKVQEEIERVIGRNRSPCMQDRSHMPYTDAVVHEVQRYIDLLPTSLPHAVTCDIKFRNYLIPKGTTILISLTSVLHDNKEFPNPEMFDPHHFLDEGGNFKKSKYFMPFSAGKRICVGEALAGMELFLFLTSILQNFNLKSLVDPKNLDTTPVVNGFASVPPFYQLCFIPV

Ratio IC50 (Homo sapiens [1]): > 10 | IC50 (Cytochrome P450 2C9): > 20 µM | IC50 (Cytochrome P450 3A4): > 10 µM | IC50 (Cytochrome P450 1A2 [2]): 1.82 µM | Ratio IC50 (Homo sapiens [3]): > 100 | IC50 (Cytochrome P450 2C19 [4]): > 20 µM | TDI (Cytochrome P450 1A1): Not Active | IC50 (Cytochrome P450 2C8): 8.92 µM | IC50 (Cytochrome P450 2E1): > 10 µM | IC50 (Cytochrome P450 1A2 [6]): 1.12 µM | Ratio IC50 (Homo sapiens [7]): > 100 | IC50 (Cytochrome P450 2D6): 5 µM | IC50 (Cytochrome P450 2C19 [8]): > 10 µM
SMILES: COc1cc(/C=C/C(=O)c2ccncc2)cc(OC)c1OC
Ratio IC50 (Homo sapiens [5]): < 10
